Experimental data from patent US7425410B2, “Methods for diagnosing a bipolar disorder and unipolar disorder” (Free State Diagnostics, LLC, priority 2003, dated 2008).

Tests used:
[1] = test system: lymphoblasts; experiment: Rate of drop in membrane potential (repolarization rate) in lymphoblasts; type: cell-based, human
Protocol: As the Na^+K^+ ATPase density on the cell surface increases, the intracellular sodium concentration decreases and the membrane potential begins to drop as a result of repolarization of the cell membrane. The rate of drop in membrane potential (repolarization rate) in affected cells incubated for 30 minutes in both K^+-free buffer and in K^+-containing (regular) buffer in the presence or absence of 30 μM ethacrynate was compared to that of unaffected cells incubated for 30 minutes in both K^+-free buffer and in K^+-containing buffer in the presence or absence of 30 μM ethacrynate. The difference in the median values between the two groups was greater than would be expected by chance.
The rate of drop in membrane potential after incubation with the protein kinase C (PKC) activator, phorbol 12-myristate 13-acetate (PMA), was compared in affected cells to that of unaffected cells. The membrane potential of these cells was determined by measuring the fluorescence intensity as described above. The rate of drop in membrane potential (repolarization rate) in affected cells was compared to that in unaffected cells in K^+-free buffer in the presence or absence of 2 μM PMA. The difference in the median values between the two groups was greater than would be expected by chance.
The rate of drop in membrane potential (repolarization rate) in affected cells incubated for 30 minutes in both K^+-free buffer and in K^+-containing (regular) buffer in the presence or absence of 2 μM PMA was compared to that of unaffected cells incubated for 30 minutes in both K^+-free buffer and in K^+-containing buffer in the presence or absence of 2 μM PMA. The difference in the median values between the two groups was greater than would be expected by chance.

[2] = test system: lymphoblasts; experiment: Membrane potential of lymphoblasts by DiOC6(3) fluorescence intensity ratio; type: cell-based, human
Protocol: Three groups of immortalized lymphoblast samples were obtained from the Human Genetic Mutant Cell Repository (Coriell Institute for Medical Research, Camden N.J.). The samples are shown in Table 4 below and included six from affected (bipolar I disorder) patients (A1 through A6), six from their siblings (S1 through S6), and six from unrelated normal control subjects matched by age and sex (N1 through N6).
The cells were grown at 37° C. in RPMI 1640 culture medium (GIBCO, Life Technologies, Gaithersburg, Md., USA) with 15% fetal bovine serum and 1% penicillin.
The membrane potentials of the bipolar I cells shown in Table 4 above (as well as in all other experiments, except where indicated) were measured using the following protocol. The cells cultured in the media described above were centrifuged at 210 g for 5 minutes at room temperature, then suspended in 3 ml of K^+-containing stock buffer (5 mM KCl, 4 mM NaHCO3, 5 mM HEPES, 134 mM NaCl, 2.3 mM CaCl2, and 5 mM glucose). The cells were counted and the desired number of cells were again suspended in the K^+-containing buffer. The membrane potentials were measured using 3,3′-dihexyloxacarbocyanine iodide DiOC6(3), a cell-permeant, voltage sensitive, green-fluorescent dye (Molecular Probes Inc. Eugene, Oreg. USA). The cells were preincubated for 30 minutes before measurements. The preincubated cell suspension was centrifuged at 210 g for 5 minutes and the cells were resuspended in the K^+-containing buffer without the dye in the buffer.
A fluorescence spectrometer (F2500 Hitachi, Japan) was used for the measurement of the membrane potential by measuring the fluorescence intensity of DiOC6(3), which is directly proportional to the membrane potential. The intensity of fluorescence was measured at an excitation wavelength of 488 nm and an output wavelength of 540 nm. The time of recordings varied from 10 seconds to 1500 seconds depending upon the experiment.
Membrane potential was expressed according to fluorescence intensity using the following equation: I=CV, wherein I is the fluorescence intensity of a lipophilic fluorescent dye DiOC6(3) being only one example of such a dye); V is the voltage or membrane potential; and C is a constant that can vary depending on a number of factors such as, but not limited to, temperature, lamp intensity, number of cells, concentration of the fluorescent dye, incubation time, and lipid composition of cells used. By using the ratio of the fluorescence intensity (I1) of one sample of cells to the fluorescence intensity (I2) of another sample of cells, the constant (C) could be canceled out
Membrane potentials were also measured in K^+-free buffer to enable comparison with membrane potentials in K^+-containing buffer. As used herein, K^+-free buffer contains all of the components of the K^+-containing buffer, except potassium (4 mM NaHCO3, 5 mM HEPES, 134 mM NaCl, 2.3 mM CaCl2, and 5 mM glucose). Constant volumes of samples of each cell line were added to an equal volume of buffer containing an equal volume of dye. […] Each variable was constant for each cell line in both buffers, so that the ratio of intensities was a true ratio-metric measurement.
The relative fluorescence intensity ratio of cells in K^+-free buffer was compared to that of cells in K^+-containing buffer with or without 30 μM ethacrynate. […] The membrane potential of these cells was determined by measuring the fluorescence intensity as described above. […]

[3] = test system: whole blood cells; experiment: Blind clinical trial and individual patient diagnosis: fluorescence intensity ratio of whole blood cells; type: cell-based, human; conditions: 30 μM ethacrynate
Protocol: A clinical trial was conducted using blood samples from the following four groups: schizophrenic, bipolar, and unipolar patients, as well as controls. The medical histories of these patients were unknown to the investigator measuring the membrane potentials; therefore, the trials described in this example were blind trials. The sample size was determined to be 5 with a power of 0.9, an alpha of 0.05, a difference in mean of 0.08, and a standard deviation of 0.03. However, more than 10 samples for each category were tested for a total sample size of 59. If a patient matched a diagnosis, structured clinical interviews according to DSM-IV guidelines were performed.
Whole blood samples drawn from patients and controls were suspended both in K^+-containing buffer and in K^+-free buffer with 30 μM ethacrynate or with 100 μM sorbitol. The fluorescent dye DiOC6(3) was added to both suspensions and incubated for 30 minutes. The cell suspensions loaded with the dye were centrifuged, drained and resuspended in the respective buffers. The fluorescence intensity was measured for 10 seconds and the ratio of the intensity in K^+-free buffer to the intensity in K^+-containing buffer was calculated.
An individual patient's cell sample was tested as described herein and six to twelve ratios were calculated. These values were treated as a group and compared with a normal control group (negative control) and a bipolar group (positive control).

[4] = test system: whole blood cells; experiment: Open clinical trial: fluorescence intensity ratio of whole blood cells; type: cell-based, human
Protocol: A pilot clinical trial was conducted using blood samples from 12 clinically affected bipolar patients and 11 unaffected controls. The medical histories of the patients were known to the investigator measuring the membrane potentials; therefore, the trials described in this example were open trials. The patients ranged from 19 years to 77 years in age, and included males and females from different ethnic groups. Similarly, the controls ranged from 25 to 67 including males and females from different ethnic groups. The patients were all hospitalized following a confirmed manic episode. During the drawing of samples, all patients were on mood stabilizers, either lithium or valproate.
Because the volume of blood required to collect enough lymphocytes was beyond that permitted by the current protocol, the membrane potential of whole blood cells was determined. The volume of whole blood required was approximately 1 ml. The blood samples were kept on ice until they were stored at 4° C. All of the samples were tested within 48 hours.
Whole blood samples drawn from patients and controls were suspended in K^+-containing buffer without ethacrynate and in K^+-free buffer with 30 μM ethacrynate or with 100 mM sorbitol. The fluorescent dye DiOC6(3) was added to both suspensions and incubated for 30 minutes. The cell suspensions loaded with the dye were centrifuged, drained and resuspended in the respective buffers. The fluorescence intensity was measured for 10 seconds and the ratio of the intensity in K^+-free buffer to the intensity in K^+-containing buffer was calculated.

[5] = antibiotic ionophore; cited from earlier work
[6] = blind trial, Bipolars, whole blood
[7] = blind trial, Controls, whole blood
[8] = blind trial, Schizophr., whole blood
[9] = blind trial, Unipolars, whole blood
[10] = Bipolars, 30 μM ethacrynate, whole blood
[11] = Controls, 30 μM ethacrynate, whole blood

CCCCCCCCCCCCCC(=O)O[C@@H]1[C@@H](C)[C@@]2(O)[C@@H](C=C(CO)C[C@]3(O)C(=O)C(C)=C[C@@H]23)[C@@H]2C(C)(C)[C@]12OC(C)=O [PMA, phorbol 12-myristate 13-acetate]
relative ratio of repolarization rates in affected cells compared to unaffected cells ([1]; 2 μM PMA, 30 min, K+-free and K+-containing buffer, P=0.046): significantly lower | repolarization rate (with PMA/without PMA) in affected cells compared to unaffected cells ([1]; K+-free buffer, 2 μM PMA, t-test P=0.029): significantly different

C=C(CC)C(=O)c1ccc(OCC(=O)O)c(Cl)c1Cl [ethacrynate]
relative rate of repolarization in affected cells compared to unaffected cells ([1]; 30 μM ethacrynate, 30 min, K+-free and K+-containing buffer, P=0.041): significantly higher | relative intensity ratio of affected cells compared to unaffected cells ([2]; 30 μM ethacrynate, 30 min, K+-free vs K+-containing buffer, t-test P=0.009): significantly higher | intensity ratio (membrane potential with ethacrynate/without ethacrynate) of affected cells compared to unaffected cells ([2]; K+-free buffer, 30 μM ethacrynate, t-test P=0.032): significantly higher | relative intensity ratio, mean (intensity ratio with/without ethacrynate in K+-free buffer divided by that in K+-containing buffer) ([2]; affected (bipolar I) cells, 30 μM ethacrynate, 30 min): approximately 1.04 | relative intensity ratio, mean (intensity ratio with/without ethacrynate in K+-free buffer divided by that in K+-containing buffer) ([2]; unaffected (sibling and normal) cells, 30 μM ethacrynate, 30 min): approximately 0.79 | ratio of fluorescence intensity in K+-free buffer with ethacrynate to K+-containing buffer without ethacrynate, Mean ([3]; Patient A): 0.766 | ratio of fluorescence intensity in K+-free buffer with ethacrynate to K+-containing buffer without ethacrynate, Median ([3]; Patient A): 0.763 | fluorescence intensity ratio of bipolar samples compared to the other three groups ([3]; blind trial, ANOVA): significantly lower | fluorescence intensity ratio of unipolar samples compared to the other three groups ([3]; blind trial, ANOVA): significantly higher | ratio of fluorescence intensity in K+-free buffer with ethacrynate to K+-containing buffer without ethacrynate, Mean [3, 6]: 0.768 | ratio of fluorescence intensity in K+-free buffer with ethacrynate to K+-containing buffer without ethacrynate, Median [3, 6]: 0.773 | ratio of fluorescence intensity in K+-free buffer with ethacrynate to K+-containing buffer without ethacrynate, Mean [3, 7]: 0.850 | ratio of fluorescence intensity in K+-free buffer with ethacrynate to K+-containing buffer without ethacrynate, Median [3, 7]: 0.850 | ratio of fluorescence intensity in K+-free buffer with ethacrynate to K+-containing buffer without ethacrynate, Mean [3, 8]: 0.870 | ratio of fluorescence intensity in K+-free buffer with ethacrynate to K+-containing buffer without ethacrynate, Median [3, 8]: 0.863 | ratio of fluorescence intensity in K+-free buffer with ethacrynate to K+-containing buffer without ethacrynate, Mean [3, 9]: 0.898 | ratio of fluorescence intensity in K+-free buffer with ethacrynate to K+-containing buffer without ethacrynate, Median [3, 9]: 0.901 | mean fluorescence intensity ratio of bipolar samples compared to control samples ([4]; 30 μM ethacrynate, t-test): significantly lower | ratio of fluorescence intensity in K+-free buffer with ethacrynate to K+-containing buffer without ethacrynate, Mean [4, 10]: 0.780 | ratio of fluorescence intensity in K+-free buffer with ethacrynate to K+-containing buffer without ethacrynate, Median [4, 10]: 0.778 | ratio of fluorescence intensity in K+-free buffer with ethacrynate to K+-containing buffer without ethacrynate, Mean [4, 11]: 0.893 | ratio of fluorescence intensity in K+-free buffer with ethacrynate to K+-containing buffer without ethacrynate, Median [4, 11]: 0.893

CC[C@@]1([C@@H]2O[C@@H]([C@H]3O[C@@](O)(CO)[C@H](C)C[C@@H]3C)C[C@@H]2C)CC[C@H]([C@]2(C)CC[C@]3(C[C@H](O)[C@@H](C)[C@@H]([C@@H](C)[C@@H](OC)[C@H](C)C(=O)O)O3)O2)O1 [monensin]
intensity ratio (membrane potential with monensin/without monensin) of affected cells compared to unaffected cells ([2]; K+-free buffer, 10 μM monensin, 30 min, t-test P=0.009): significantly lower | preference for Na+ over K+ [5]: 10 fold

OC[C@@H](O)[C@@H](O)[C@H](O)[C@@H](O)CO [sorbitol]
fluorescence intensity ratios of bipolar cells with sorbitol compared to ethacrynate ([4]; bipolar patients, 100 mM sorbitol in K+-free buffer, whole blood): comparable
